Patent US11439603B2, “Compositions for ameliorating, preventing or treating somnipathy including phloroglucinol as active ingredient and compositions for suppressing intolerance to or alleviating side effects of agonist at benzodiazepine binding site of GABA-A receptor including phloroglucinol as active ingredient” (KOREA FOOD RESEARCH INSTITUTE, priority 2017, dated 2022)

Legend:
C57BL/6N mice [1] = experiment: Sleep architecture analysis (EEG/EMG) after single administration; format: in vivo; settings: for NREM sleep / REM sleep: EEG recorded for 2 h after oral administration
Method: C57BL/6N mice (28-30 g, 12-week old male) were received from Koatech Co. Ltd. (Pyeongtaek, Gyeonggi-do, Korea) and acclimated to the vivarium for a period of one week before testing was conducted. The animals were housed at a temperature of 23±1° C., a humidity of 55±5%, and a light intensity of 3000 Lux under a 12 h light-dark cycle (light on from 07:00 to 19:00). The animals had ad libitum access to food and water. All animals were maintained in accordance with the guidelines for the Institutional Animal Care and Use Committee of the Korea Food Research Institute (KFRI-IACUC).
C57BL/6N mice were acclimated for a period of one week and received electrode implantation for electroencephalogram (EEG) and electromyogram (EMG) recordings. Each mouse was anesthetized with pentobarbital (50 mg/kg, i.p.) and its head was fixed in a stereotaxic instrument. After the subcutaneous connective tissue of the head was incised, an EEG/EMG headmount (Pinnacle Technology Inc., Lawrence, Kans., USA) was implanted for EEG and EMG recordings, fixed with dental cement, and closed with sutures. The surgical site was sterilized and an antibiotic was administered for 3 days to prevent possible inflammation after surgery. The animal was allowed to recover for 7 days. For adaptation to the recording conditions, 0.5% CMC-saline solution used as a control was administered orally from 4 days before measurement. Thereafter, the recording instrument was connected to induce acclimation of the animal to this experimental procedure.
After oral administration of a sample, the animal was stabilized for 5 min. Then, EEG and EMG were recorded using PAL-8200 series (Pinnacle Technology Inc., Lawrence, Kans., USA) for 24 h from 17:00. The sampling rate for EEG and EMG recordings was set to 200 Hz (epoch time: 10 s). The filtering range was set to 0.1-25 Hz for EEG data recording and 10-100 Hz for EMG data recording.
Sleep architecture analysis was conducted according to the fast Fourier transform (FFT) algorithm using the SleepSign program (Ver. 3.0, Kissei Comtec Inc., Matsumoto, Nagono, Japan).
The results were divided into three stages: Wake, REMS (rapid eye movement sleep, theta band: 6-10 Hz) and NREMS (non-rapid eye movement sleep, delta band: 0.5-4 Hz). Sleep latency was defined as the time required for NREM sleep with 10 s epoch to occur consecutively at least 12 times (Blanco-Centurion et al., 2006). The values in the 0.5-4 Hz range were averaged and the delta power during NREM sleep was expressed in percent relative to the control.
All animal experimental data were expressed as mean±standard deviation.

[2] = test system: GABAA-benzodiazepine receptor; experiment: Mechanism of action for sleep enhancement: flumazenil given 15 min before oral sample, EEG/EMG; format: in vivo, mice
Method: To investigate the mechanism of action for sleep enhancement, flumazenil, an antagonist of the GABAA-benzodiazepine receptor, was administered 15 min before oral administration of phloroglucinol and EEG and EMG were recorded by the same method as described in Experimental Example 1.
In this example, zolpidem was used as a positive control.

C57BL/6N mice [3] = experiment: Sleep architecture (EEG) during long-term administration for 21 days and 2-day withdrawal; format: in vivo
Method: Experimental animals were prepared and their sleep architecture was analyzed in the same manner as in Experimental Example 1. As in the single administration in Experimental Example 1, the mice were allowed to recover for 7 days after surgery and acclimated for 4 days. Thereafter, baselines (BL) were measured on day 0 after acclimation and a sample was administered orally to each animal for 21 days. EEGs were recorded on days 1, 7, 14, and 21. EEGs were recorded and analyzed during the subsequent 2-day withdrawal. FIG. 8 is a flow diagram of an experiment for sleep architecture analysis during long-term administration.
EEGs were recorded for the mice on days 0, 1, 7, 14, and 21 during long-term administration of each sample for 3 weeks. The recorded EEGs were analyzed.

GABAA-benzodiazepine = settings: compared with other phlorotannins and diazepams; cited from earlier work
[4] = administered alone at doses of 25 to 50 mg/kg; cited from earlier work
[5] = oral once daily for 3 weeks, phloroglucinol 100 mg/kg, zolpidem 5 mg/kg
[6] = oral once daily for 3 weeks, phloroglucinol 100 mg/kg, zolpidem 5 mg/kg, or both

CN1C(=O)CN=C(c2ccccc2)c2cc(Cl)ccc21 [diazepam]
delta activity in the range of 0.5-4 Hz (C57BL/6N mice [1]; 5 mg/kg diazepam (data not shown)): significantly reduced

Oc1cc(O)cc(O)c1 [phloroglucinol]
NREM sleep (C57BL/6N mice [1]): increased NREM sleep in a concentration-dependent manner | REM sleep (C57BL/6N mice [1]): without affecting REM sleep | delta activity during NREM sleep (C57BL/6N mice [1]; oral, up to 150 mg/kg alone): no significant change | time after administration for which NREM sleep was significantly increased (C57BL/6N mice [1]; single administration 150 mg/kg): 2 h | sleep latency compared to negative control (vehicle) (C57BL/6N mice [1]; single oral administration, all concentrations (50, 100 and 150 mg/kg)): significantly reduced | amount of NREM sleep ([2]; treated with flumazenil 15 min before oral administration): level similar to that of a negative control | NREM sleep ([2]; untreated with flumazenil): increased NREM sleep | NREM sleep duration compared to baseline (BL) (C57BL/6N mice [3]; [5]): increase | intolerance on long-term administration (C57BL/6N mice [3]; [5]): no intolerance | sleep latency compared to baseline (BL) (C57BL/6N mice [3]; [5]): significant reduction | persistence of NREM sleep-enhancing effect from day 1 to day 21 (C57BL/6N mice [3]; phloroglucinol 100 mg/kg alone or with zolpidem 5 mg/kg, once daily): lasted similarly from day 1 to day 21 | IC50 (GABAA-benzodiazepine): much lower | binding affinity (Ki) (GABAA-benzodiazepine): much lower | sleep duration [4]: increasing sleep duration | sleep latency [4]: effective in reducing sleep latency

Cc1ccc(-c2nc3ccc(C)cn3c2CC(=O)N(C)C)cc1 [zolpidem, N,N,6-trimethyl-2-p-tolylimidazo[1,2-a]pyridine-3-acetamide L-(+)-tartrate (2:1)]
residual sedation (C57BL/6N mice [1]; 5 mg/kg): slight residual sedation | time after administration for which NREM sleep was significantly increased (C57BL/6N mice [1]; 5 mg/kg): 3 h | time after administration for which vigilance was significantly reduced (C57BL/6N mice [1]; 5 mg/kg): up to 9 h | NREM sleep at 14 h after administration (residual sedative effect) (C57BL/6N mice [1]; 10 mg/kg alone): significantly increased | time after administration for which the sleep-enhancing effect lasted (C57BL/6N mice [1]; 10 mg/kg alone): 4 h | increase of NREM sleep duration (C57BL/6N mice [1]; 10 mg/kg, 2 h after oral administration, p<0.01): 74.6% | NREM sleep (C57BL/6N mice [1]): increased NREM sleep in a concentration-dependent manner | REM sleep (C57BL/6N mice [1]): without affecting REM sleep | delta activity in the range of 0.5-4 Hz during NREM sleep (C57BL/6N mice [1]; oral 5 mg/kg, p<0.01): significantly reduce | delta activity in the range of 0.5-4 Hz during NREM sleep (C57BL/6N mice [1]; oral 10 mg/kg, p<0.01): significantly reduce | reduction of sleep latency (C57BL/6N mice [1]; single administration of zolpidem 10 mg/kg): ~44 min | sleep latency compared to negative control (vehicle) (C57BL/6N mice [1]; single administration, 5 and 10 mg/kg): significantly reduced | sleep-enhancing effect with flumazenil ([2]; flumazenil administered before sample, positive control): completely blocked | time for which NREM sleep duration was significantly increased compared to baseline (C57BL/6N mice [3]; day 1, zolpidem 5 mg/kg alone or with phloroglucinol 100 mg/kg): 3 h | time for which NREM sleep duration was significantly increased compared to baseline (C57BL/6N mice [3]; day 21, zolpidem 5 mg/kg alone): 1 h | delta activity compared to baseline (C57BL/6N mice [3]; days 1, 7, and 14 of long-term administration, zolpidem 5 mg/kg, p<0.01): significant reductions | NREM sleep duration compared to baseline (BL) (C57BL/6N mice [3]; [5]): significant increase | intolerance on long-term administration (C57BL/6N mice [3]; [5]): demonstrating intolerance | sleep latency compared to baseline (BL) (C57BL/6N mice [3]; [5]): significant reduction | NREM sleep duration with increasing administration period (third week / day 21 versus first day) (C57BL/6N mice [3]; [6]): significant difference | sleep latency with increasing administration period (third week / days 7, 14, 21 versus first day) (C57BL/6N mice [3]; [6]): significant difference
